Reference: patent US20220281848A1, “PYRAZOLE-SUBSTITUTED PYRROLIDINONES AS HERBICIDES” (FMC Corporation, priority 2019, published 2022)

Legend:
Format in all cases: in vivo
[1] = system: redroot pigweed (Amaranthus retroflexus, AMARE); test: Test A pre-emergence, redroot pigweed; details: after 13 d
Summary of the method: (§1)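 Seeds were sown in standard soil in pots, kept one day in a glasshouse (24/16° C. day/night, 14 h light, 65% humidity), then sprayed with compound in acetone/water (50:50) containing 0.5% Tween 20 at 15.625, 62.5 or 250 g/ha. Plants grew on under the same conditions, watered twice daily, and damage was scored after 13 d (0 = none, 100 = total).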

[2] = system: wheat; test: Test D pre-emergence, wheat seed treated with a herbicide safener; details: 100=total damage, 0=no damage
Summary of the method: (§2)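 Herbicidal injury on safener-protected cereals: application timings were one day after sowing for pre-emergence and about 12 days of cultivation for post-emergence. Assessment came 20 DAA or 15 d later respectively, on a scale where 100 meant total damage.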

[3] = system: velvetleaf (Abutilon theophrasti, ABUTH); test: Test A pre-emergence, velvetleaf; details: after 13 d
Summary of the method: as §1

[4] = system: corn (Zea mays, ZEAMX); test: Test A pre-emergence, corn; details: after 13 d
Summary of the method: as §1

[5] = system: barnyardgrass (Echinochloa crus-galli, ECHCG); test: Test A post-emergence, barnyardgrass; details: after 13 d
Summary of the method: (§3)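 Plants were grown 8 d in a glasshouse (24/16° C day/night, 14 h light, 65% humidity), then sprayed post-emergence at 15.625, 62.5 or 250 g/ha in acetone/water (50:50) with 0.5% Tween 20. Damage was scored visually after 13 d (0 = none, 100 = total).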

[6] = system: giant foxtail (Setaria faberi, SETFA); test: Test A pre-emergence, giant foxtail; details: after 13 d
Summary of the method: as §1

[7] = system: velvetleaf (Abutilon theophrasti, ABUTH); test: Test A post-emergence, velvetleaf; details: after 13 d
Summary of the method: as §3

[8] = system: maize; test: Test D pre-emergence, maize seed treated with a herbicide safener; details: ZEAMX, preemergent, 20 DAA
Summary of the method: as §2

[9] = system: giant foxtail (Setaria faberi, SETFA); test: Test A post-emergence, giant foxtail; details: after 13 d
Summary of the method: as §3

[10] = system: redroot pigweed (Amaranthus retroflexus, AMARE); test: Test A post-emergence, redroot pigweed; details: after 13 d
Summary of the method: as §3

Row | Compound | damage to plant (100=total damage; 0=no damage) AMARE ([1]; Pre-Emergence at 62.5 g/ha) | damage to plant (100=total damage; 0=no damage) AMARE ([1]; Pre-Emergence at 250 g/ha) | damage to plant, TRZAW ([2]; rate 15, 20 DAA) | damage to plant, TRZAW ([2]; rate 30, 20 DAA) | damage to plant, TRZAW ([2]; rate 60, 20 DAA) | damage to plant, TRZAW ([2]; rate 130, 20 DAA) | damage to plant, TRZAW ([2]; rate 250, 20 DAA) | damage to plant, TRZAW ([2]; rate 500, 20 DAA) | damage to plant (100=total damage; 0=no damage) ABUTH ([3]; Pre-Emergence at 62.5 g/ha) | damage to plant (100=total damage; 0=no damage) ABUTH ([3]; Pre-Emergence at 250 g/ha) | damage to plant (100=total damage; 0=no damage) ZEAMX ([4]; Pre-Emergence at 62.5 g/ha) | damage to plant (100=total damage; 0=no damage) ZEAMX ([4]; Pre-Emergence at 250 g/ha) | damage to plant (100=total damage; 0=no damage) ECHCG ([5]; Post-Emergence at 62.5 g/ha) | damage to plant (100=total damage; 0=no damage) ECHCG ([5]; Post-Emergence at 250 g/ha) | damage to plant (100=total damage; 0=no damage) SETFA ([6]; Pre-Emergence at 62.5 g/ha) | damage to plant (100=total damage; 0=no damage) SETFA ([6]; Pre-Emergence at 250 g/ha) | damage to plant (100=total damage; 0=no damage) ABUTH ([7]; Post-Emergence at 62.5 g/ha) | damage to plant (100=total damage; 0=no damage) ABUTH ([7]; Post-Emergence at 250 g/ha) | damage to plant (100=total damage to plant; 0=no damage to plant), ZEAMX ([8]; rate 15) | damage to plant (100=total damage to plant; 0=no damage to plant), ZEAMX ([8]; rate 30) | other results
1 | CN1CC(c2cc(C(F)(F)F)n(C)n2)C(C(=O)Nc2ccc(F)c(F)c2F)C1=O (racemic) [Compound 17] | 10 | 20 | 0 | 0 | 0 | 50 | 60 | 90 | 0 | 10 | 70 | 90 | 70 | 80 | 90 | 90 | 0 | 0 | 0 | 0 | damage to plant (100=total damage; 0=no damage) AMARE ([1]; Pre-Emergence at 15.625 g/ha): 0; damage to plant (100=total damage; 0=no damage) ABUTH ([3]; Pre-Emergence at 15.625 g/ha): 0; damage to plant (100=total damage; 0=no damage) ZEAMX ([4]; Pre-Emergence at 15.625 g/ha): 60; damage to plant (100=total damage; 0=no damage) ECHCG ([5]; Post-Emergence at 15.625 g/ha): 60; damage to plant (100=total damage; 0=no damage) SETFA ([6]; Pre-Emergence at 15.625 g/ha): 90; damage to plant (100=total damage; 0=no damage) ABUTH ([7]; Post-Emergence at 15.625 g/ha): 0; damage to plant (100=total damage to plant; 0=no damage to plant), ZEAMX ([8]; rate 60): 0; damage to plant (100=total damage to plant; 0=no damage to plant), ZEAMX ([8]; rate 130): 0; damage to plant (100=total damage to plant; 0=no damage to plant), ZEAMX ([8]; rate 250): 10; damage to plant (100=total damage to plant; 0=no damage to plant), ZEAMX ([8]; rate 500): 30; damage to plant (100=total damage; 0=no damage) SETFA ([9]; Post-Emergence at 15.625 g/ha): 60; damage to plant (100=total damage; 0=no damage) SETFA ([9]; Post-Emergence at 62.5 g/ha): 70; damage to plant (100=total damage; 0=no damage) SETFA ([9]; Post-Emergence at 250 g/ha): 80; damage to plant (100=total damage; 0=no damage) AMARE ([10]; Post-Emergence at 15.625 g/ha): 0; damage to plant (100=total damage; 0=no damage) AMARE ([10]; Post-Emergence at 62.5 g/ha): 20; damage to plant (100=total damage; 0=no damage) AMARE ([10]; Post-Emergence at 250 g/ha): 50
2 | CN1CC(c2cc(C(F)(F)F)n(C)n2)C(C(=O)Nc2ccc(F)cc2C(C)(F)F)C1=O (racemic) [Compound 26] | 0 | 0 | 0 | 0 | 0 | 10 | 70 | 30 | 0 | 0 | 70 | 90 | 70 | 90 | 90 | 90 | 0 | 0 | 0 | 0 | damage to plant (100=total damage to plant; 0=no damage to plant), ZEAMX ([8]; rate 60): 0; damage to plant (100=total damage to plant; 0=no damage to plant), ZEAMX ([8]; rate 130): 0; damage to plant (100=total damage to plant; 0=no damage to plant), ZEAMX ([8]; rate 250): 0; damage to plant (100=total damage to plant; 0=no damage to plant), ZEAMX ([8]; rate 500): 0; damage to plant (100=total damage; 0=no damage) SETFA ([9]; Post-Emergence at 62.5 g/ha): 80; damage to plant (100=total damage; 0=no damage) SETFA ([9]; Post-Emergence at 250 g/ha): 90; damage to plant (100=total damage; 0=no damage) AMARE ([10]; Post-Emergence at 62.5 g/ha): 0; damage to plant (100=total damage; 0=no damage) AMARE ([10]; Post-Emergence at 250 g/ha): 0
